In ChEMBL document CHEMBL3632504, “Discovery of 1H-pyrazolo[3,4-b]pyridines as potent dual orexin receptor antagonists (DORAs)” (Bioorg Med Chem Lett, 2015):
≈ marks a conversion by molar mass, not a printed value.

How the values were obtained:
[1] = biological target: T1, Orexin receptor type 2 (Homo sapiens, UniProt O43614); assay: Antagonist activity against human orexin 2 receptor after 1 hr by Ca2+ sensitive Fluo4-AM fluorescent dye-based FLIPR assay; assay type: functional
T1 sequence (O43614 whole entry): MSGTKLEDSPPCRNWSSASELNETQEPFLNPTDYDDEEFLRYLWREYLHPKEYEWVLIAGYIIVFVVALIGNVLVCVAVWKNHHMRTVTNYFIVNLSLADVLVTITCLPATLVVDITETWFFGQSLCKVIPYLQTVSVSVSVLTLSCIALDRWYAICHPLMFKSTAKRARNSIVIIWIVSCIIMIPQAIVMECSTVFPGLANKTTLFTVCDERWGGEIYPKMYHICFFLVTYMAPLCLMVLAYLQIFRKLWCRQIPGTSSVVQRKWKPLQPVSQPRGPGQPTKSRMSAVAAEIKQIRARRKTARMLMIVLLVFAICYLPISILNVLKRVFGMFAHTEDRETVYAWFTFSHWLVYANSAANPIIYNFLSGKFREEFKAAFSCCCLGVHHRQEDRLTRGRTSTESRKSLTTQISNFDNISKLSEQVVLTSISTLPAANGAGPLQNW

[2] = species on record: Homo sapiens; assay: Selectivity ratio of Ki for human orexin 1 receptor to Ki for human orexin 2 receptor
[3] = biological target: T2, Orexin/Hypocretin receptor type 1 (Homo sapiens, UniProt O43613); assay: Displacement of [125l]orexin A from human orexin 1 receptor expressed in CHO cells after 1 hr; assay type: cell-based
T2 sequence (O43613 whole entry): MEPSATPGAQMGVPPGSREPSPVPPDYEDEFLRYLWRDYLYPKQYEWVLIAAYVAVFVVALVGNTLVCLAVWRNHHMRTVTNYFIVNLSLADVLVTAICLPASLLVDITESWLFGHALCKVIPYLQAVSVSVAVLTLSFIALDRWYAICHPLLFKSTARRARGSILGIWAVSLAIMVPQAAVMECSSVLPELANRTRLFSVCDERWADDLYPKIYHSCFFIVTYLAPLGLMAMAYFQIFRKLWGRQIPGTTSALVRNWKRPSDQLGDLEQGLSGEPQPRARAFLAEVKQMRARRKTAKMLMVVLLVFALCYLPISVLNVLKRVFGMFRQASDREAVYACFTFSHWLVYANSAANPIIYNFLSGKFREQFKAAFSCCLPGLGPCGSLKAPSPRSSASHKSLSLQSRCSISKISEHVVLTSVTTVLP

[4] = biological target: T1, Orexin receptor type 2; assay: Displacement of [125l]orexin A from human orexin 2 receptor expressed in CHO cells after 1 hr; assay type: cell-based
[5] = Octanol/water partition coefficient, logP of the compound; assay type: physicochemical
[6] = Equilibrium solubility of the compound at pH 6.8; assay type: physicochemical; conditions: buffer
[7] = Permeability of the compound by PAMPA; assay type: physicochemical
[8] = tested on: MDR1; assay: Efflux ratio of permeability from basolateral to apical side over apical to basolateral side in MDCK cells expressing MDR1; assay type: ADME, cell-based, Canis lupus familiaris; conditions: dog
[9] = biological target: Cytochrome P450 3A4 (Homo sapiens, UniProt P08684); assay: Inhibition of CYP3A4 (unknown origin); assay type: ADME
[10] = biological target: Cytochrome P450 2D6 (Homo sapiens, UniProt P10635); assay: Inhibition of CYP2D6 (unknown origin); assay type: ADME
[11] = biological target: Cytochrome P450 2C9 (Homo sapiens, UniProt P11712); assay: Inhibition of CYP2C9 (unknown origin); assay type: ADME
[12] = Intrinsic clearance in rat liver microsomes; assay type: ADME; conditions: read-out: CLH
[13] = Intrinsic clearance in human liver microsomes; assay type: ADME; conditions: read-out: CLH
[14] = Intrinsic clearance in mouse liver microsomes; assay type: ADME; conditions: read-out: CLH
[15] = Plasma protein binding in human; assay type: ADME, cell-free; conditions: read-out: PPB (converted)
[16] = Plasma protein binding in mouse; assay type: ADME; conditions: read-out: PPB
[17] = biological target: Voltage-gated inwardly rectifying potassium channel KCNH2 (Homo sapiens, UniProt Q12809); assay: Binding affinity to human ERG
[18] = Blood clearance in mouse at 1 mg/kg, iv administered through cassette dosing; assay type: ADME, organism-based
[19] = Volume of distribution at steady state in mouse at 1 mg/kg, iv administered through cassette dosing; assay type: ADME, organism-based; conditions: in vivo, read-out: Vdss
[20] = Terminal half life in mouse at 1 mg/kg, iv administered through cassette dosing; assay type: ADME, organism-based; conditions: in vivo, read-out: beta t1/2 (converted)
[21] = tested on: Blood; assay: Dose-normalized Cmax in mouse blood at 3 mg/kg, po administered through cassette dosing; assay type: ADME, organism-based; conditions: in vivo
[22] = tested on: Blood; assay: Dose-normalized AUC in mouse blood at 3 mg/kg, po administered through cassette dosing; assay type: ADME, organism-based; conditions: in vivo
[23] = Oral bioavailability in mouse at 3 mg/kg administered through cassette dosing; assay type: ADME, organism-based; conditions: in vivo
[24] = tested on: Plasma; assay: Fraction unbound in mouse plasma; assay type: ADME, cell-free
[25] = in vivo; conditions: mouse, brain / blood, po, 3 mg/kg
Description: Ratio of drug level in brain to blood in mouse at 3 mg/kg, po at 1 hr post dose administered through cassette dosing

[26] = biological target: T2, Orexin/Hypocretin receptor type 1
Description: Antagonist activity against human orexin 1 receptor after 1 hr by Ca2+ sensitive Fluo4-AM fluorescent dye-based FLIPR assay

[27] = Drug metabolism in mouse liver microsomes assessed as oxidation at benzylic position of amide; assay type: ADME
[28] = tested on: Liver microsome; assay: Drug metabolism in human liver microsomes assessed as oxidation at benzylic position of amide; assay type: ADME
[29] = Drug metabolism in mouse liver microsomes assessed as oxidation at phenyl ring in 3-position of core moiety; assay type: ADME
[30] = tested on: Liver microsome; assay: Drug metabolism in human liver microsomes assessed as oxidation at phenyl ring in 3-position of core moiety; assay type: ADME
[31] = species on record: Mus musculus; assay: Drug metabolism in mouse assessed as oxidation at benzylic position of amide; assay type: ADME, organism-based; conditions: in vivo
[32] = species on record: Mus musculus; assay: Drug metabolism in mouse assessed as oxidation at phenyl ring in 3-position of core moiety; assay type: ADME, organism-based; conditions: in vivo

Sequence of Cytochrome P450 2C9 (P11712 whole entry): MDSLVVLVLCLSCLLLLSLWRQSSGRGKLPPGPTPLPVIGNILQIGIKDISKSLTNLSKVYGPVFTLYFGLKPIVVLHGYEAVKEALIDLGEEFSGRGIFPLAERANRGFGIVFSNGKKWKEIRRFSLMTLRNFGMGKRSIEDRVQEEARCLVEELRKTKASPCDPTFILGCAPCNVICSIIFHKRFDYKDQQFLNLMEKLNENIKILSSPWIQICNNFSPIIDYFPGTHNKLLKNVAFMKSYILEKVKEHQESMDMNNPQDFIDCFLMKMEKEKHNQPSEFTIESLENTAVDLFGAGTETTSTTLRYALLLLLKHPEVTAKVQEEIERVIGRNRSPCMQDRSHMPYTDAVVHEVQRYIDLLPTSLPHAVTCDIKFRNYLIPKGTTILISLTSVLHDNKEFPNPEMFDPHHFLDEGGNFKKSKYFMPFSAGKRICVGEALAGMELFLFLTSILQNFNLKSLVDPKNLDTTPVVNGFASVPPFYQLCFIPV
Sequence of Cytochrome P450 2D6 (P10635 whole entry): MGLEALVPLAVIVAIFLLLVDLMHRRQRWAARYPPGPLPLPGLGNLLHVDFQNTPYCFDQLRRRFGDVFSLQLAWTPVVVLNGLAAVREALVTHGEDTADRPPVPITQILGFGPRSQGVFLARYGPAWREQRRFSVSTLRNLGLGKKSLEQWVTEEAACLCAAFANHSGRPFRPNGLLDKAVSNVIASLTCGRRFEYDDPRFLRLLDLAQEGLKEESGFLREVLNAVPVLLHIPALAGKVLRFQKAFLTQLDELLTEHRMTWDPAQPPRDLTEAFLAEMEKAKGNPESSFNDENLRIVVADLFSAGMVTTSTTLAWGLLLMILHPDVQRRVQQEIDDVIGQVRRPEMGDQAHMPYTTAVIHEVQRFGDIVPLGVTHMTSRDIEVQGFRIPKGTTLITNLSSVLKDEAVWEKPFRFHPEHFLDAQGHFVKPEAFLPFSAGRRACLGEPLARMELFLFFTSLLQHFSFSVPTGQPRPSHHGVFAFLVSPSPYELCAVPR
Sequence of Cytochrome P450 3A4 (P08684 whole entry): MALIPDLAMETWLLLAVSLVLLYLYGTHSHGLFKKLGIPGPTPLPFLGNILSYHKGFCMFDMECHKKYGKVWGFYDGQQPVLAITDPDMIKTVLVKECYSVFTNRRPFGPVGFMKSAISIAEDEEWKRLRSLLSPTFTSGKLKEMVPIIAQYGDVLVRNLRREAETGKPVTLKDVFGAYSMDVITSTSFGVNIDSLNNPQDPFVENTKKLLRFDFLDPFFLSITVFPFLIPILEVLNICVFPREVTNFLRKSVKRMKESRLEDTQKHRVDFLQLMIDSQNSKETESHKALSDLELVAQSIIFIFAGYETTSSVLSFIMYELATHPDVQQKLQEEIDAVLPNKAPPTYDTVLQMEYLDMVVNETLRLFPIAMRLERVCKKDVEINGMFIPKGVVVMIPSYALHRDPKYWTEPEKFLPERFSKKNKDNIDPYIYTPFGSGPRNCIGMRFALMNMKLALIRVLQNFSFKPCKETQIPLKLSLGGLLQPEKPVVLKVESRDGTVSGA
Sequence of Voltage-gated inwardly rectifying potassium channel KCNH2 (Q12809 whole entry): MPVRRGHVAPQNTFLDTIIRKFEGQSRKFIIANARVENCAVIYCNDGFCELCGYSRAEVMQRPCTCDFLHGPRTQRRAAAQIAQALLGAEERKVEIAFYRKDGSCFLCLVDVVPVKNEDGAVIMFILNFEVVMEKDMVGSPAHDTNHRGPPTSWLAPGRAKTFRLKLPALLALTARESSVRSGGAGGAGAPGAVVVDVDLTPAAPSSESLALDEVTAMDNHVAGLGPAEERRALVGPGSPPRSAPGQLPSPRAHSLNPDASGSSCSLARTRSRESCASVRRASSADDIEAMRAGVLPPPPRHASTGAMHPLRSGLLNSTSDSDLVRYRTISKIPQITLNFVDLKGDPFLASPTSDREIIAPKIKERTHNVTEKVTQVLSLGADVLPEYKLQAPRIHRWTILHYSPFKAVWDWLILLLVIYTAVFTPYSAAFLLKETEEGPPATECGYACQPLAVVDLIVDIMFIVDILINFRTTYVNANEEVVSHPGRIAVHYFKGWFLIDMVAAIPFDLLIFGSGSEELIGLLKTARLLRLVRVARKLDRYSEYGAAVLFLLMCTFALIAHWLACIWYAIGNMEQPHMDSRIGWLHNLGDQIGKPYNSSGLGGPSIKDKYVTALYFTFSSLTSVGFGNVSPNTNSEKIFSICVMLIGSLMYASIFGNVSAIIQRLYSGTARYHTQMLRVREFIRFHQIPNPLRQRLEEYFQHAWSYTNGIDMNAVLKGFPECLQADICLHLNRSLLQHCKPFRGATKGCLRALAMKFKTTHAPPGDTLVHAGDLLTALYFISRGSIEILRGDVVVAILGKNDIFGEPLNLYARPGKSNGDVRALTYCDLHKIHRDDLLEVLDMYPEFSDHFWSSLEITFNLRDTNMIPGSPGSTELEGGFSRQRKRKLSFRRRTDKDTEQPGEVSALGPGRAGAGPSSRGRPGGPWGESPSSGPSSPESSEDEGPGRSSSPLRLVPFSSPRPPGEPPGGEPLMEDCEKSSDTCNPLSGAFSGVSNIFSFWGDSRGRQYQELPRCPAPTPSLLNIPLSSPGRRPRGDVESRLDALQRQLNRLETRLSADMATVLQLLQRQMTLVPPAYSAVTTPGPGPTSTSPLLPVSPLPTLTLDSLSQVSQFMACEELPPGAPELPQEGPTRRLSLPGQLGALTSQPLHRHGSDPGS

SMILES: CC(NC(=O)COc1cc(C(F)(F)F)c2c(-c3ccccc3)nn(C)c2n1)c1ccccn1 (racemic)
- Ki [1]: Not Active

SMILES: COc1cccc(C(C)NC(=O)COc2cc(C(F)(F)F)c3c(-c4ccccc4)nn(C)c3n2)c1 (racemic)
- Ratio Ki [2]: 0.77

SMILES: COc1ccc([C@H](C)NC(=O)COc2cc(C(F)(F)F)c3c(-c4ccccc4)nn(C)c3n2)cc1
- Ratio Ki [2]: 7
- Ki [3]: 0.008 µM
- Ki [4]: 0.004 µM
- logP [5]: 4.6
- solubility thermodynamic [6]: < 4 µM
- log(permeability) [7]: -4
- efflux ratio [8]: 1
- IC50 [9]: 8 µM
- IC50 [10]: > 20 µM
- IC50 [11]: 5 µM
- microsomal CLint [12]: 147 µL/min/mg
- microsomal CLint [13]: 190 µL/min/mg
- microsomal CLint [14]: 478 µL/min/mg
- fraction unbound [15]: < 0.01
- fraction unbound [16]: < 0.01
- IC50 [17]: > 30 µM
- clearance [18]: 65 mL/min/kg
- Vd [19]: 2 L/kg
- half-life [20]: 66 min
- Cmax/dose [21]: 4 nM
- AUC/dose [22]: 17 nM·h
- bioavailability [23]: 3%
- Fu [24]: < 1%
- Kp at 1 h [25]: 1.15

SMILES: Cc1nn(C)c(C)c1C(C)NC(=O)COc1cc(C(F)F)c2c(-c3ccccc3)nn(C)c2n1 (racemic)
- logP [5]: 3.9
- solubility thermodynamic [6]: 248 µM (≈ 116 µg/mL)

SMILES: COc1ccc(CNC(=O)COc2cc(C(F)(F)F)c3c(-c4ccccc4)nn(C)c3n2)cc1
- Ratio Ki [2]: 9.64

SMILES: COc1ccc(C(C)NC(=O)COc2cc(C(F)(F)F)c3c(-c4ccccc4)nn(C)c3n2)cc1 (racemic)
- Ratio Ki [2]: 14.5

SMILES: Cc1cc2c(cn1)[C@@H](NC(=O)COc1cc(C)c3c(C4CC4)nn(C)c3n1)CC2
- logP [5]: 3.5
- solubility thermodynamic [6]: 25 µM (≈ 9.79 µg/mL)
- microsomal CLint [12]: 924 µL/min/mg

SMILES: COc1ccc([C@@H](C)NC(=O)COc2cc(C(F)(F)F)c3c(-c4ccccc4)nn(C)c3n2)cc1
- Ratio Ki [2]: 2.41

SMILES: Cc1nn(C)c(C)c1[C@H](C)NC(=O)COc1cc(C(F)(F)F)c2c(-c3ccccc3)nn(C)c2n1
- Ki ([1]; read-out: Ki): 0.01 µM
- Ratio Ki [2]: 0.7
- Ki [26]: 0.007 µM

SMILES: Cc1nn(C)c(C)c1C(C)NC(=O)COc1cc(C(F)F)c2c(C3CC3)nn(C)c2n1 (racemic)
- logP [5]: 2.8
- solubility thermodynamic [6]: 657 µM (≈ 284 µg/mL)
- microsomal CLint [12]: 660 µL/min/mg

SMILES: Cc1ccc([C@H](C)NC(=O)COc2cc(C)c3c(-c4cnccn4)nn(C)c3n2)cc1
- logP [5]: 3.9
- solubility thermodynamic [6]: 115 µM (≈ 47.9 µg/mL)

SMILES: CC(NC(=O)COc1cc(C(F)(F)F)c2c(-c3ccccc3)nn(C)c2n1)c1ccccc1 (racemic)
- Ki ([1]; read-out: Ki): 0.078 µM
- Ratio Ki [2]: 1.54
- Ki [3]: 0.088 µM
- Ki [4]: 0.168 µM
- Ki [26]: 0.12 µM

SMILES: Cc1ccc([C@H](C)NC(=O)COc2cc(C)c3c(-c4ncccn4)nn(C)c3n2)cc1
- Ki ([1]; read-out: Ki): 0.005 µM
- logP [5]: 3.3
- solubility thermodynamic [6]: 43 µM (≈ 17.9 µg/mL)

SMILES: C[C@H](NC(=O)COc1cc(C(F)(F)F)c2c(-c3ccccn3)nn(C)c2n1)c1ccccc1
- Ki ([1]; read-out: Ki): 0.367 µM
- logP [5]: 3.5
- solubility thermodynamic [6]: 40 µM (≈ 18.2 µg/mL)
- microsomal CLint [12]: 924 µL/min/mg
- Ki [26]: 0.66 µM

SMILES: CC(NC(=O)COc1cc(C(F)(F)F)c2c(-c3ccccc3)nn(C)c2n1)c1cccnc1 (racemic)
- Ratio Ki [2]: 1.67

SMILES: Cc1n[nH]c(C)c1[C@H](C)NC(=O)COc1cc(C(F)(F)F)c2c(-c3ccccc3)nn(C)c2n1
- logP [5]: 4.2
- solubility thermodynamic [6]: < 4 µM
- log(permeability) [7]: -4.1
- IC50 [9]: > 20 µM
- IC50 [10]: > 20 µM
- IC50 [11]: > 20 µM
- microsomal CLint [12]: 603 µL/min/mg
- microsomal CLint [13]: 433 µL/min/mg
- microsomal CLint [14]: 330 µL/min/mg
- fraction unbound [15]: 0.04
- fraction unbound [16]: < 0.01
- clearance [18]: 20 mL/min/kg
- Vd [19]: 0.5 L/kg
- half-life [20]: 30 min
- Cmax/dose [21]: 300 nM
- AUC/dose [22]: 371 nM·h
- bioavailability [23]: 21%
- Fu [24]: < 1%

SMILES: Cc1ccc2c(n1)CC[C@@H]2NC(=O)COc1cc(C)c2c(C3CC3)nn(C)c2n1
- Ratio Ki [2]: 4.95
- clearance [18]: 66 mL/min/kg
- Vd [19]: 0.4 L/kg
- half-life [20]: 18 min
- Cmax/dose [21]: 115 nM
- AUC/dose [22]: 106 nM·h
- bioavailability [23]: 16%
- Kp at 1 h [25]: 0.13

SMILES: C[C@H](NC(=O)COc1cc(C(F)(F)F)c2c(-c3ccccc3)n[nH]c2n1)c1ccccc1
- Ratio Ki [2]: 4.65

SMILES: COc1ccccc1C(C)NC(=O)COc1cc(C(F)(F)F)c2c(-c3ccccc3)nn(C)c2n1 (racemic)
- Ratio Ki [2]: 1.73

SMILES: C[C@H](NC(=O)COc1cc(C(F)(F)F)c2c(-c3ccccc3)nn(C)c2n1)c1ccccc1
- Ratio Ki [2]: 1.62
- logP [5]: 4.7
- solubility thermodynamic [6]: < 4 µM
- Drug metabolism [27]: metabolite_detected
- Drug metabolism [28]: metabolite_detected
- Drug metabolism [29]: metabolite_detected
- Drug metabolism [30]: metabolite_detected
- Drug metabolism [31]: metabolite_detected
- Drug metabolism [32]: metabolite_detected

SMILES: C[C@H](NC(=O)CNc1cc(C(F)(F)F)c2c(-c3ccccc3)nn(C)c2n1)c1ccccc1
- Ratio Ki [2]: 0.31
